The values below come from US11802128B2, “Azetidine and pyrrolidine PARP1 inhibitors and uses thereof” (Xinthera, Inc., priority 2021, dated 2023).

The subject of assay [1] is MDA-MB-436 (mutated BRCA1) cells. Kind of assay: Cell growth inhibition assay (CellTiter-Glo cell viability, 7 days). It is filed as cell-based. The conditions noted are these: Homo sapiens, 168 h, MDA-MB-436, 7 days. The text has this:
(§1) The objective of this study is to evaluate the effect of invention compounds on cell proliferation through the cell viability assay in DLD-1 BRCA2(−/−) and parental isogenic pair and MDA-MB-436 (mutated BRCA1) cell lines. The CellTiter-Glo (CTG) based cell viability assay is designed to determine the number of viable cells in the culture because of compound effect, by quantifying ATP, which indicates the presence of metabolically active cells.
(§2) DLD-1 BRCA2(−/−) and parental isogenic pair were cultured in RPMI 1640 supplemented with 10% fetal bovine serum (FBS), and MDA-MB-436 cells were cultured in DMEM supplemented with 10% FBS. Both are culture at 37° C. with 5% CO2. Invention compounds were distributed to the 384 well plate (Corning, 3764) using Echo acoustic liquid handler to form a 1:3 serially diluted final concentration with top dose of 10 or 30 μM. The cells were seeded into the plate in the density of 50 cells/well (DLD-1 parental), 200 cells/well (DLD-1 BRCA2−/−), or 500 cells/well (MDA-MB-436). After a short spun, the cells were cultured in a well moisturized incubator at 37° C. with 5% CO2 for 7 days without disturbance. The cell viability was measured by CellTiter Glo 2.0 assay kit (Promega, G9243), and growth inhibition rate was calculated and plotted against final compound concentration, and the data were fitted in Xfit to generate IC50.
On the technique in general: Cellular ATP, detected with luciferase, serves as a proxy for viable cell number.

The subject of a further assay is DLD-1 BRCA2(−/−) cells. Described as above. The format is cell-based. The conditions noted are these: Homo sapiens, 168 h.
From the text: as §1, §2

Structures are written as SMILES. Bounds are passed on as bounds.

Usually EC50 stands for the midpoint of the concentration-response curve. As for `CCc1cc2ncc(CN3CC[C@H](Oc4ccc(C(=O)NC)nc4)C3)cc2[nH]c1=O` [Example 1, 5-{[(3S)-1-[(7-ethyl-6-oxo-5H-1,5-naphthyridin-3-yl)methyl]pyrrolidin-3-yl]oxy}-N-methylpyridine-2-carboxamide], the EC50 (in assay [1]; in the assay on DLD-1 BRCA2(−/−) cells) was more than 1000 nM in each case. Regarding `CCc1cc2ncc(CN3C[C@@H](F)[C@H](Oc4ccc(C(=O)NC)nc4)C3)cc2[nH]c1=O` [Example 5, 5-{[(3R,4R)-1-[(7-ethyl-6-oxo-5H-1,5-naphthyridin-3-yl)methyl]-4-fluoropyrrolidin-3-yl]oxy}-N-methylpyridine-2-carboxamide], the EC50 (in assay [1]; in the assay with DLD-1 BRCA2(−/−) cells) was more than 1000 nM each time. Turning to `CCc1cc2ncc(CN3C[C@H](Oc4ccc(C(=O)NC)nc4)[C@@H](F)C3)cc2[nH]c1=O` [Example 6, 5-(((3S,4S)-1-((7-ethyl-6-oxo-5,6-dihydro-1,5-naphthyridin-3-yl)methyl)-4-fluoropyrrolidin-3-yl)oxy)-N-methylpicolinamide], the values for the EC50 (in assay [1]; in the assay on DLD-1 BRCA2(−/−) cells) were 42 nM and 73 nM, respectively.

In the assay with DLD-1 BRCA2(−/−) cells, `CCc1cc2ncc(CN3C[C@H](F)[C@H](Oc4ccc(C(=O)NC)nc4)C3)cc2[nH]c1=O` [Example 8, 5-{[(3R,4S)-1-[(7-ethyl-6-oxo-5H-1,5-naphthyridin-3-yl)methyl]-4-fluoropyrrolidin-3-yl]oxy}-N-methylpyridine-2-carboxamide] returned an EC50 of more than 1000 nM. `CCc1cc2ncc(CN3C[C@@H](F)[C@@H](Oc4ccc(C(=O)NC)nc4)C3)cc2[nH]c1=O` [Example 9, 5-(((3S,4R)-1-((7-ethyl-6-oxo-5,6-dihydro-1,5-naphthyridin-3-yl)methyl)-4-fluoropyrrolidin-3-yl)oxy)-N-methylpicolinamide]: the EC50 stood at 25 nM in assay [1] and 72 nM with DLD-1 BRCA2(−/−) cells.

`CCc1cc2ncc(CN3CC[C@@H](N(C)c4ccc(C(=O)NC)nc4)C3)cc2[nH]c1=O` [Example 11, 5-{[(3R)-1-[(7-ethyl-6-oxo-5H-1,5-naphthyridin-3-yl)methyl]pyrrolidin-3-yl](methyl)amino}-N-methylpyridine-2-carboxamide]: the EC50 in assay [1] came to 19 nM; in the assay with DLD-1 BRCA2(−/−) cells, 28 nM. The matching figures for `CCc1cc2ncc(CN3CC[C@@H](Cc4ccc(C(=O)NC)nc4)C3)cc2[nH]c1=O` [Example 13, 5-{[(3R)-1-[(7-ethyl-6-oxo-5H-1,5-naphthyridin-3-yl)methyl]pyrrolidin-3-yl]methyl}-N-methylpyridine-2-carboxamide]: 12 nM and 38 nM.

Regarding `CCc1cc2ncc(CN3CC(C)(Oc4ccc(C(=O)NC)nc4)C3)cc2[nH]c1=O` [Example 15, 5-({1-[(7-ethyl-6-oxo-5H-1,5-naphthyridin-3-yl)methyl]-3-methylazetidin-3-yl}oxy)-N-methylpyridine-2-carboxamide], in the assay on DLD-1 BRCA2(−/−) cells, the EC50 is more than 1000 nM. With `CNC(=O)c1ccc(OC2CN(Cc3cnc4cc(C5CC5)c(=O)[nH]c4c3)C2)cn1` [Example 16, 5-({1-[(7-cyclopropyl-6-oxo-5H-1,5-naphthyridin-3-yl)methyl]azetidin-3-yl}oxy)-N-methylpyridine-2-carboxamide], the results for the EC50 (in assay [1]; in the assay on DLD-1 BRCA2(−/−) cells) were 18 nM and 49 nM, respectively.

Consider `CCc1cc2ncc(CN3C[C@@H](Oc4ccc(C(=O)NC)nc4)[C@@H]3C)cc2[nH]c1=O` [Example 18, 5-{[(2S,3R)-1-[(7-ethyl-6-oxo-5H-1,5-naphthyridin-3-yl)methyl]-2-methylazetidin-3-yl]oxy}-N-methylpyridine-2-carboxamide], for which the EC50 (in assay [1]; with DLD-1 BRCA2(−/−) cells) was more than 1000 nM in each case. For the compound `CCc1cc2ncc(CN3C[C@@H](Oc4ccc(C(=O)NC)nc4)[C@H]3C)cc2[nH]c1=O` [Example 19, 5-{[(2R,3R)-1-[(7-ethyl-6-oxo-5H-1,5-naphthyridin-3-yl)methyl]-2-methylazetidin-3-yl]oxy}-N-methylpyridine-2-carboxamide], the EC50 (in assay [1]; with DLD-1 BRCA2(−/−) cells) was more than 1000 nM each time. `CCc1cc2ncc(CN3C[C@H](Oc4ccc(F)cc4C#N)[C@H]3C)cc2[nH]c1=O` [Example 65]: the results for the EC50 (in assay [1]; in the assay on DLD-1 BRCA2(−/−) cells) were 91 nM and 93 nM, respectively. The matching figures for `CCNC(=O)c1ccc(O[C@H]2CN(Cc3cnc4cc(CC)c(=O)[nH]c4c3)[C@@H]2C)cn1` [Example 67]: 0.65 nM and 0.97 nM. The matching figures for `CCc1cc2ncc(CN3C[C@H](Oc4ccc(C#N)c(F)c4)[C@H]3C)cc2[nH]c1=O` [Example 68]: 18 nM and 15 nM. The corresponding values for `CCc1cc2ncc(CN3C[C@H](Oc4ccc(C#N)cc4F)[C@H]3C)cc2[nH]c1=O` [Example 69] are 5.6 nM and 11 nM.

In the case of `[2H]C([2H])(c1cnc2cc(CC)c(=O)[nH]c2c1)N1C[C@H](Oc2ccc(C(=O)NC3CC3)nc2)[C@H]1C` [Example 71], the EC50 in assay [1] is 0.49 nM; in the assay with DLD-1 BRCA2(−/−) cells it was 0.89 nM. In the case of `CCc1cc2ncc(CN3C[C@H](Oc4ccc(C#N)cc4C#N)[C@H]3C)cc2[nH]c1=O` [Example 72], the values for the EC50 (in assay [1]; in the assay with DLD-1 BRCA2(−/−) cells) were 50 nM and 33 nM, respectively.

`C[C@@H]1[C@@H](Oc2ccc(C#N)nc2)CN1Cc1cnc2cc(Cl)c(=O)[nH]c2c1` [Example 78]: the values for the EC50 (in assay [1]; in the assay on DLD-1 BRCA2(−/−) cells) were 35 nM and 32 nM, respectively.

In the case of `CCc1cc2ncc(CN3C[C@H](Oc4ccc(C(=O)NC5CC5)nc4C#N)[C@H]3C)cc2[nH]c1=O` [Example 79], the EC50 in assay [1] came to 1.9 nM; in the assay on DLD-1 BRCA2(−/−) cells it was 6.3 nM. Regarding `Cc1cc2ncc(CN3C[C@H](Oc4ccc(C(=O)N[C@H]5C[C@@H](F)C5)nc4)[C@H]3C)cc2[nH]c1=O` [Example 81], the EC50 in assay [1] stood at 1.7 nM; with DLD-1 BRCA2(−/−) cells it was 3 nM.

For the compound `CCc1cc2ncc(CN3C[C@H](n4ccc5nc(C#N)ccc54)[C@H]3C)cc2[nH]c1=O` [Example 83], the EC50 in assay [1] turned out to be 11 nM; in the assay with DLD-1 BRCA2(−/−) cells it was 22 nM. `Cc1cc2ncc(CN3C[C@H](Oc4ccc(C(=O)NC5CCC5)nc4)[C@H]3C)cc2[nH]c1=O` [Example 85]: the EC50 in assay [1] was found to be 1.3 nM; in the assay with DLD-1 BRCA2(−/−) cells, 1.8 nM. The corresponding values for `CCc1cc2ncc(CN3C[C@H](n4ccc5nc(C(=O)NC6CC6)ccc54)[C@H]3C)cc2[nH]c1=O` [Example 86] are 1.8 nM and 3.4 nM. The matching figures for `CNC(=O)c1ccc2c(ccn2[C@H]2CN(Cc3ccc4[nH]c(=O)c(C5CC5)cc4n3)[C@@H]2C)n1` [Example 87]: 12 nM and 20 nM. The corresponding values for `CCNC(=O)c1ccc2c(ccn2[C@H]2CN(Cc3cnc4cc(CC)c(=O)[nH]c4c3)[C@@H]2C)n1` [Example 88] are 3.4 nM and 6.3 nM. Consider `C[C@@H]1[C@@H](Oc2ccc(C(=O)NC3CCC3)nc2)CN1Cc1cnc2cc(C(F)F)c(=O)[nH]c2c1` [Example 92], for which the EC50 in assay [1] came out at 1.1 nM; with DLD-1 BRCA2(−/−) cells, 1.6 nM. The corresponding values for `CCc1nc2ccc(CN3C[C@H](Oc4ccc(C(=O)NC)nc4)[C@H]3C)c(F)c2[nH]c1=O` [Example 93] are 5 nM and 7.2 nM. The corresponding values for `Cc1nc2ccc(CN3C[C@H](Oc4ccc(C(=O)NC5CC5)nc4)[C@H]3C)c(F)c2[nH]c1=O` [Example 94] are 11 nM and 43 nM. The corresponding values for `CCc1nc2ccc(CN3C[C@H](Oc4ccc(C(=O)NC5CC5)nc4)[C@H]3C)c(F)c2[nH]c1=O` [Example 95] are 3.2 nM and 3.5 nM. Consider `CNC(=O)c1ccc2c(ccn2[C@H]2CN(Cc3ccc4nc(C)c(=O)[nH]c4c3F)[C@@H]2C)n1` [Example 96], for which the EC50 (in assay [1]; in the assay on DLD-1 BRCA2(−/−) cells) was more than 1000 nM throughout.

In the case of `CNC(=O)c1ccc(O[C@H]2CN(Cc3ccc4nc(C5CC5)c(=O)[nH]c4c3F)[C@@H]2C)cn1` [Example 97], the EC50 in assay [1] stood at 21 nM; with DLD-1 BRCA2(−/−) cells, 34 nM.

On to `CNC(=O)c1ccc(O[C@H]2CN(Cc3ccc4nc(C)c(=O)[nH]c4c3F)[C@@H]2C)c(F)n1` [Example 98], for which the EC50 in assay [1] stood at 29 nM; in the assay on DLD-1 BRCA2(−/−) cells, 61 nM. For the compound `C[C@@H]1[C@@H](Oc2ccc(C(=O)NC3CC3)nc2)CN1Cc1ccc2cc(Cl)c(=O)[nH]c2c1F` [Example 99], the EC50 in assay [1] stood at 1.7 nM; with DLD-1 BRCA2(−/−) cells, 4 nM. The corresponding values for `CCc1nc2ccc(CN3C[C@H](Oc4ccc(C(=O)NC)nc4F)[C@H]3C)c(F)c2[nH]c1=O` [Example 100] are 5.9 nM and 11 nM.

In the case of `CCc1nc2ccc(CN3C[C@H](Oc4ccc(C(=O)NC5CC5)nc4F)[C@H]3C)c(F)c2[nH]c1=O` [Example 101], the EC50 in assay [1] is 3.1 nM; in the assay with DLD-1 BRCA2(−/−) cells, 5.4 nM.

As to `CNC(=O)c1ccc(O[C@H]2CN(Cc3cc(F)c4nc(C)c(=O)[nH]c4c3F)[C@@H]2C)cn1` [Example 102], the EC50 in assay [1] came out at 110 nM; in the assay with DLD-1 BRCA2(−/−) cells, 49 nM. The corresponding values for `Cc1nc2ccc(CN3C[C@H](Oc4ccc(C(=O)NC5CC5)nc4F)[C@H]3C)c(F)c2[nH]c1=O` [Example 103] are 30 nM and 27 nM. `CCc1cc2ncc(CN3C[C@H](Oc4ccc(C(=O)NC5CC5)nc4F)[C@H]3C)cc2[nH]c1=O` [Example 104]: the values for the EC50 (in assay [1]; with DLD-1 BRCA2(−/−) cells) were 0.85 nM and 1.9 nM, respectively.
